Starred links: 1 amine or outer side, 2 acyl side, 3 side chain; linkers in the order of their positions; H or OH if unused. Positions of bridges follow the written chain, without caps; N, C: chain ends. Non-standard residues stand in square brackets, D forms with d. Residues, ends and D or L forms follow the SMILES beside them. Chains are numbered I, II in the order given. Actinocin(9to1) = Cc1c2oc3c(C)ccc(C(=O)[*:1])c3nc-2c(C(=O)[*:2])c(N)c1=O; NMeV = CN[C@H](C(=O)O)C(C)C; Sar = CNCC(=O)O
Experiments:
[1] = system: 125I-CART 61-102 specific binding in PC12 cells; assay: Effect of differentiation; format: cell-based, Rat; conditions: 5 nM radioligand; for effect of inhibitors on specific binding, undifferentiated cells: undifferentiated PC12 cells, 6 hours, CHX 10 ug/ml, ActiD 2 mM, CytoD 4 mM, n=3 – 5
[2] = system: CART binding in nucleus accumbens neurons; conditions: primary cell cultures; ref Jones and Kuhar, 2008; cited from earlier work
[3] = system: phospho-ERK in PC12 cells; assay: ERK activation; format: cell-based, Rat; conditions: for inhibition of CART-induced phospho-ERK (general, in words): pertussis toxin
[4] = system: voltage dependant Ca++ signaling in hippocampal cells; conditions: hippocampal cells in culture; ref Yermolaieva et al., 2001; cited from earlier work
[5] = system: ERK signaling in AtT20 cells; conditions: ref Lakatos et al., 2005; cited from earlier work
[6] = system: CART binding in PC12 cells; conditions: ref Maixnerova et al., 2007, Maletinska et al.; cited from earlier work

## Cc1c2oc3c(C)ccc(C(=O)N[C@@H]4C(=O)N[C@H](C(C)C)C(=O)N5CCC[C@H]5C(=O)N(C)CC(=O)N(C)[C@@H](C(C)C)C(=O)O[C@@H]4C)c3nc-2c(C(=O)N[C@@H]2C(=O)N[C@H](C(C)C)C(=O)N3CCC[C@H]3C(=O)N(C)CC(=O)N(C)[C@@H](C(C)C)C(=O)O[C@@H]2C)c(N)c1=O [ActiD, Actinomycin D] (I: T[dV]P[Sar][NMeV] / II: T[dV]P[Sar][NMeV]; ester I:1-I:C, II:1-II:C; linker I:N-II:N via Actinocin(9to1))
[1]
  effect of inhibitors on specific binding, undifferentiated cells: none of the inhibitors had any effects

## C[C@@H]1C[C@@H]([C@H](O)CC2CC(=O)NC(=O)C2)C(=O)[C@@H](C)C1 [CHX, Cycloheximide]
[1]
  effect of inhibitors on specific binding, undifferentiated cells: none of the inhibitors had any effects

## C=C1[C@@H](C)[C@H]2[C@H](Cc3ccccc3)NC(=O)[C@]23[C@H](OC(C)=O)/C=C/[C@@](C)(O)C(=O)[C@@H](C)C/C=C/[C@H]3[C@@H]1O [CytoD, Cytochalasin D]
[1]
  effect of inhibitors on specific binding, undifferentiated cells: none of the inhibitors had any effects

## Nc1nc2c(ncn2[C@@H]2O[C@H](COP(=O)(O)OP(=O)(O)OP(=O)(O)O)[C@@H](O)[C@H]2O)c(=O)[nH]1 [GTP]
[2]
  specific binding in nucleus accumbens neurons and effect of nucleotides on it: reduced the binding of CART peptide

## Pertussin Toxin [PTX]
[3]; PC12 cells
  inhibition of CART-induced phospho-ERK (general, in words): reduced
[3]; PC12 cells, listed as pertussis toxin
  inhibition of CART-induced phospho-ERK (general, in words): blocked
[3]; PTX 200ng/m, at least 16 hrs, N 3 days, CART 61-102 0.3 µM
  inhibition of CART-induced phospho-ERK, N-differentiated cells: prevented
[3]; PTX 200ng/m, at least 16 hrs, N + P 3 days, CART 61-102 0.3 µM
  inhibition of CART-induced phospho-ERK, N + P-differentiated cells: inhibited
[3]; PTX 200ng/m, at least 16 hrs, undifferentiated PC12 cells, CART 0.3 µM
  inhibition of CART-induced phospho-ERK, undifferentiated cells: inhibited
[3]; PTX alone vs control, PC12 cells
  effect of PTX alone on phospho-ERK: no inhibitory effect compared to control
[4]
  effect on voltage dependant Ca++ signaling: blocked
[5]
  ERK signaling in AtT20 cells: reduced

B1: Nerve Growth Factor 2.5S (protein, UniProt P01139 122-241, looked up)
Beta-nerve growth factor: SSTHPVFHMGEFSVCDSVSVWVGDKTTATDIKGKEVTVLAEVNINNSVFRQYFFETKCRASNPVESGCRGIDSKHWNSYCTTTHTFVKALTTDEKQAAWRFIRIDTACVCVLSRKATRRG
modifications: Beta-nerve growth factor
[3]; acute treatment, undifferentiated and differentiated PC12 cells, data not shown
  phospho-ERK stimulation, positive controls: increased ERK phosphorylation
[1]; NGF 50ng/mL and/or PACAP 100nM, 1, 2, 3 days, N = 3 – 5
  change of specific 125I-CART 61-102 binding over 1-3 days of differentiation: increased
[6]
  specific binding in PC12 cells: increased after differentiation

From paper PMC3170513 (Neuropeptides, 2011)
